Consider 1 compound from US10258612B2, “Mitochondrial lipid permeable iron chelators for treating and preventing ischemia/reperfusion (I/R) injury in the heart following an ischemic event” (Northwestern University, priority 2015, dated 2019).

Series [1] is described as follows: Complete blood count and serum iron parameters in wild-type mice with chelator treatment. Type of series: in vivo. As to conditions: iron chelators for 3 weeks, n = 5, mean±SEM. The procedure: To test the use of these iron chelators in the setting of I/R, mice were pretreated for a week with these chelators and then subjected to I/R or sham operation. Chelation was continued for two weeks after the operation. […] To rule out any changes of serum iron hematopoiesis that can account for the cardiac functional difference, we performed complete blood counts and measured serum iron parameters in wild-type mice treated with iron chelators for 3 weeks.
Mice were treated with 80 mg/kg BPD (Sigma) in normal saline solution daily or 50 mg/kg DFO (Sigma) in normal saline every other day via intraperitoneal injection. The dose of BPD was chosen based on its ability to modulate cardiac mitochondrial iron, and the dose of DFO was chosen according to previously published studies (Ichikawa et al., 2014). BPD was prepared as a 400 mg/ml stock solution in ethanol and diluted 1:100 in normal saline to working concentration. DFO was prepared as a 250 mg/ml stock in water and diluted 1:100 in normal saline to working concentration.

For series [2] the following is noted: cited from earlier work.

Regarding `CC(=O)N(O)CCCCCNC(=O)CCC(=O)N(O)CCCCCNC(=O)CCC(=O)N(O)CCCCCN` [DFO, deferoxamine], in series [1], the Hematocrit amounted to 47.02 ± 2.25%, the Hemoglobin worked out at 12.96 ± 0.53 g/dL, the “Iron Saturation” value is given as 18.66 ± 1.68 % and the MCH came to 13.28 ± 0.12 pg. Besides, in series [1], the MCHC is 27.62 ± 0.32 g/dL, the MCV was 48.1 ± 0.31 fL, the Platelet is recorded as 711.6 ± 139.86 10^3/μL and the RBC is on record as 9.77 ± 0.43 10^6/μL. In series [1], the RDW stood at 17 ± 0.32%, the “Serum Iron” value came to 53.37 ± 6.63 µg/dL, the “Total Iron Binding Capacity” value amounted to 281.21 ± 12.76 µg/dL and the “Unsaturated Iron Binding Capacity” value was 227.85 ± 7.71 µg/dL. Besides, the WBC in series [1] is given as 6.62 ± 0.85 10^3/μL. Besides, in series [2], the “log P” value is listed as −0.614.
